Source: patent US20190022225A1, “PROTOCOL FOR INCREASING LIFE EXPECTANCY IN A TEST SUBJECT” (Mayo Foundation for Medical Education and Research, priority 2015, published 2019)
pIC50: −log10 of the molar value.

Tests used:
[1] = system: senescent (irradiated) IMR90 cells; assay: Cell counting assay, ABT-263 on senescent IMR90; format: cell-based, human; conditions: 3 μM, 24 hours
Experimental: (§1) To determine whether ABT-263 is selectively toxic to senescent cells compared to non-senescent cells, a cell counting assay was used to determine cell survival following treatment with ABT-263. […] Each condition was seeded in three wells and counted independently. Cells were counted after a 24 hour exposure to ABT-263 (or control culture).

[2] = system: non-senescent HCA2 foreskin fibroblast cells; assay: CellTiter-Glo cell viability assay, non-senescent HCA2; format: cell-based; conditions: 72 h; HCA2, 3 days; not toxic up to highest concentration
Experimental: (§2) To determine whether ABT-263 is selectively toxic to senescent cells compared to non-senescent cells, a cell viability assay was used to assess cell survival following treatment with ABT-263. IMR90 cells (human primary lung fibroblasts (IMR90) (IMR-90 (ATCC® CCL-186™, Mannassas, Va.) were seeded in six well plates, and cells were induced to senescence with 10 Gy of ionizing radiation (IR) (Day 0). The media was refreshed every 3 days. The senescent phenotype is allowed to develop for 7 days at which point a cell count was made to determine the baseline number of cells followed by seeding into 96-well plates. On day 8, the senescent cells (irradiated) and the non-senescent cells (the non-radiated cells), were exposed to serial dilutions of ABT-263 for a period of 3 days. ABT-263 concentrations ranged from 0.5 nM to 3 μM. Each condition was seeded in triplicate.
(§3) After three days of treatment (Day 11), cells were assayed for cell survival using the commercially available CellTiter-Glo® (CTG) Luminescent Cell Viability Assay (Promega Corporation, Madison, Wis.). The assay determines the number of viable cells in culture based on the quantitation of ATP present which is an indicator of metabolically active cells.
(§4) The methods of Example 7 were repeated in other cell strains. […]

[3] = system: paclitaxel treated p16-3MR mice; assay: Chemotherapy related side effects: voluntary exercise (wheel counts) after paclitaxel in p16-3MR mice; format: in vivo, mouse; conditions: ABT-263 100 mg/kg ip daily 7 days; ganciclovir 25 mg/kg ip daily 3 days
Experimental: ABT-263 (100 mg/kg) was administered intraperitoneally daily for seven days after paclitaxel administration. Two days after the last dose of ABT-263, all groups of animals were housed in metabolic cages (promethion, sable systems international, Las Vegas, Nev.) to monitor voluntary exercise as determined by wheel counts. Data were collected and analyzed two days later. Clearance of senescent cells by ABT-263 and ganciclovir restored approximately 70% of wheel count reduction caused by chemotherapy treatment.

[4] = system: senescent (IMR90 Sen(IR)) and non-senescent (IMR90 NS) cells; assay: Senescent cell killing in presence or absence of pan-caspase inhibitor Q-VD-OPh (CellTiter-Glo); format: cell-based, human
Experimental: After senescence was established, cells were re-seeded into 96 well plates. […] At the end of the assay time period, cells were counted. Each condition was seeded in three plate wells and counted independently. […] Cell survival was determined using the commercially available CellTiter-Glo® Luminescent Cell Viability Assay (Promega Corporation, Madison, Wis.). The assay determines the number of viable cells in culture based on the quantitation of ATP present which is an indicator of metabolically active cells.
After senescence was established, cells were re-seeded into 96 well plates. […] At the end of the assay time period, cells were counted. Each condition was seeded in three plate wells and counted independently. […] Cell survival was determined using CellTiter-Glo® Luminescent Cell Viability Assay (Promega Corporation, Madison, Wis.). The assay determines the number of viable cells in culture based on the quantitation of ATP present which is an indicator of metabolically active cells.

[5] = system: non-senescent Primary Renal Cortical Cells (renal epithelial cells); assay: CellTiter-Glo cell viability assay, non-senescent renal epithelial cells; format: cell-based; conditions: 72 h, 3 days
Experimental: as §2, §3, §4

[6] = system: 3MR or INK-ATTAC mice exposed to cigarette smoke; assay: Cigarette smoke exposure model (COPD), oxygen saturation; format: in vivo, mouse; conditions: after 2 months of cigarette smoke exposure
Experimental: Six week-old 3MR (n=35) or INK-ATTAC (n=35) mice were chronically exposed to cigarette smoke generated from a Teague TE-10 system, an automatically-controlled cigarette smoking machine that produces a combination of side-stream and mainstream cigarette smoke in a chamber, which is transported to a collecting and mixing chamber where varying amounts of air is mixed with the smoke mixture. […] Mice received a total of 6 hours of cigarette smoke exposure per day, 5 days a week for 6 months. Each lighted cigarette (3R4F research cigarettes containing 10.9 mg of total particulate matter (TPM), 9.4 mg of tar, and 0.726 mg of nicotine, and 11.9 mg carbon monoxide per cigarette [University of Kentucky, Lexington, Ky.]) was puffed for 2 seconds and once every minute for a total of 8 puffs, with the flow rate of 1.05 L/min, to provide a standard puff of 35 cm^3. The smoke machine was adjusted to produce a mixture of side stream smoke (89%) and mainstream smoke (11%) by smoldering 2 cigarettes at one time. The smoke chamber atmosphere was monitored for total suspended particulates (80-120 mg/m^3) and carbon monoxide (350 ppm). Beginning at day 7, (10) INK-ATTAC and (10) 3MR mice were treated with AP20187 (3×per week) or gancyclovir (5 consecutive days of treatment followed by 16 days off drug, repeated until the end of the experiment), respectively. An equal number of mice received the corresponding vehicle. The remaining 30 mice (15 INK-ATTAC and 15 3MR) were evenly split with 5 of each genetically modified strain placed into three different treatment groups. One group (n=10) received Nutlin-3A (25 mg/kg dissolved in 10% DMSO/3% Tween-20 in PBS, treated 14 days consecutively followed by 14 days off drug, repeated until the end of the experiment). One group (n=10) received ABT-263 (Navitoclax) (100 mg/kg dissolved in 15% DMSO/5% Tween-20, treated 7 days consecutively followed by 14 days off drug, repeated until the end of the experiment), and the last group (n=10) received only the vehicle used for ABT-263 (15% DMSO/5% Tween-20), following the same treatment regimen as ABT-263.
After two months of cigarette smoke exposure, lung function was assessed by monitoring oxygen saturation using the MouseSTAT PhysioSuite pulse oximeter (Kent Scientific). Animals were anesthetized with isoflurane (1.5%) and the toe clip was applied. Mice were monitored for 30 seconds and the average peripheral capillary oxygen saturation (SpO2) measurement over this duration was calculated.

[7] = system: senescent Primary Renal Cortical Cells (renal epithelial cells); assay: CellTiter-Glo cell viability assay, senescent renal epithelial cells; format: cell-based; conditions: 72 h, 3 days
Experimental: as §2, §3, §4

[8] = system: senescent HCA2 foreskin fibroblast cells; assay: CellTiter-Glo cell viability assay, senescent HCA2; format: cell-based; conditions: 72 h; HCA2, 3 days
Experimental: as §2, §3, §4

[9] = system: non-senescent IMR90 cells; assay: CellTiter-Glo cell viability assay, non-senescent IMR90; format: cell-based; conditions: Homo sapiens, IMR-90, 72 h; IMR90, 3 days, CellTiter-Glo; read-out: IC50 on non-senescent cells
Experimental: as §2, §3
(§5) The experiments performed for assessing the effect of these other Bcl-2 inhibitors were performed essentially as described in Example 7. Cells were exposed to ABT-199 at serial dilution concentrations ranging from 15 nM to 100 μM (FIGS. 26 and 27). Cells were exposed to Obatoclax at concentrations ranging from 1.4 nM to 9 μM (FIG. 28).
(§6) The effect of ABT-263 in combination with the Akt inhibitor MK-2206 was tested for selective toxicity of senescent cells compared to non-senescent cells in IMR90 cells. The methods of Example 7 were repeated except that cell cultures were exposed to 10 nM MK-2206 (Selleckem, Cat# S1078) in addition to serial dilutions of ABT-263.

[10] = system: non-senescent IMR90 cells; assay: Cell counting assay, ABT-263 on non-senescent IMR90; format: cell-based, human; conditions: 3 μM, 24 hours
Experimental: as §1

[11] = system: senescent (irradiated) IMR90 cells; assay: CellTiter-Glo cell viability assay, senescent IMR90; format: cell-based, human
Experimental: as §2, §3, §5, §6

CC1(C)CCC(c2ccc(Cl)cc2)=C(CN2CCN(c3ccc(C(=O)NS(=O)(=O)c4ccc(N[C@H](CCN5CCOCC5)CSc5ccccc5)c(S(=O)(=O)C(F)(F)F)c4)cc3)CC2)C1 [ABT-263, 4-[4-[[2-(4-chlorophenyl)-5,5-dimethylcyclohexen-1-yl]methyl]piperazin-1-yl]-N-[4-[[(2R)-4-morpholin-4-yl-1-phenylsulfanylbutan-2-yl]amino]-3-(trifluoromethylsulfonyl)phenyl]sulfonylbenzamide]
cell counts as percent of counts before treatment [1]: 28%
pIC50 [2]: < 5.52
restoration of wheel count reduction caused by chemotherapy treatment [3]: approximately 70%
selective killing of senescent cells ([4]; IMR90, 3 days): selectively kills senescent cells
percent of surviving senescent cells in the presence of the pan-caspase inhibitor ([4]; Q-VD-OPh 20 μM, WEHI-539 1.67 or 5 μM, ABT-263 0.33 or 1 μM, 3 days): increased
senolytic activity in the presence of a caspase inhibitor ([4]; panCaspase inhibitor Q-VD-OPh): inhibited
pIC50 [5]: 6.37
SpO2 levels versus untreated controls [6]: statistically significant increases
pIC50 [7]: 7.60
pIC50 [8]: 6.39
pIC50 [9]: 5.62
cell growth / survival of non-senescent cells versus starting level [10]: did not decrease the cell growth below the starting level
pIC50 ([11]; Homo sapiens, IMR-90, 72 h, IMR90, 3 days, CellTiter-Glo, read-out: IC50 on senescent cells): 6.85
in vitro theoretical therapeutic index ([11]; IMR90, non-senescent versus senescent IC50): 17
